# Measured values published in patent publication US20150209327A1, “METHODS FOR THE TREATMENT OF OBESITY USING APREMILAST” (Celgene Corporation, priority 2014, published 2015).
# Values joined by “and” are separate entries in the source; they are usually repeats but may differ in a detail not shown here. Equal values may be shown once.
# Legend:
# [1] = tested on: TNF-α production in PBMCs; assay: Inhibition of TNF-α production in PBMCs; format: cell-based; settings: PBMC
# Text: The test methods were as described in WO 03/080049; Muller et al., J. Med. Chem., 1996, 39:3238; and Muller et al., Bioorg. Med. Chem. Lett., 1999, 9:1625-30.
# [2] = tested on: Phosphodiesterase 4 enzyme; assay: Inhibition of PDE4 (enzyme purified from U937 human monocytic cells); format: biochemical; settings: 1 μM cAMP, 45 min at 30° C.
# Description: Inhibition of PDE4: Phosphodiesterase 4 enzyme was purified from U937 human monocytic cells by gel filtration chromatography, and phosphodiesterase reactions were carried out as previously described. See Muller et al., Bioorg. Med. Chem. Lett., 1998, 8(19): 2669-2674. Briefly, reactions were carried out in 96-well deep-well plates in 50 mM Tris HCl pH 7.5, 5 mM MgCl2, 1 μM cyclic adenosine monophosphate (cAMP), plus 10 nM [3H]-cAMP for 45 min at 30° C. The reactions were terminated by boiling, treated with 1 mg/ml snake venom, and separated using AG-1X8 ion exchange resin (BioRad). Reactions consumed less than 15% of available substrate.
# [3] = tested on: PDE1; assay: PDE1 enzyme assay; format: biochemical; settings: at 10 μM
# Description: (§1) PDE1, 2, 3 and 5 enzyme assays were prepared as described by Hidaka and Asano. Biochem. Biophys. Acta., 1976, 429:485; see also Nicholsen et al., Trends Pharmaco. Sci., 1991, 12:19. The PDE6 enzyme assay was prepared according to Baehr et al., J. Biol. Chem., 1979, 254:11669 and Gillespie et al., Mol. Pharm., 1989, 36: 773. The PDE7 enzyme assay was prepared according to Bloom and Beavo. Proc. Natl. Acad. Sci. USA, 1996, 93:14188-92.
# [4] = tested on: PDE3; assay: PDE3 enzyme assay; format: biochemical; settings: at 10 μM
# Description: as §1
# [5] = Psoriatic Arthritis (PsA) Phase 3 Data Pool: weight change; format: in vivo, human; settings: for Weight % Change Category 0%, n (%) / Weight % Change Category <−20%, n (%) / Weight % Change Category >0% to ≦5%, n (%) / Weight % Change Category >5% to ≦10%, n (%) / Weight % Change Category >10% to ≦20%, n (%) / Weight % Change Category >20%, n (%) / Weight % Change Category ≧−5% to <0%, n (%) / Weight % Change Category ≧−10% to <−5%, n (%) / Weight % Change Category ≧−20% to <−10%, n (%): Subjects as Treated; for observed weight loss of greater than 10%, subjects n (%) / percentage of subjects with weight change of -10% to <−5%: Weeks 0 to 16
# Text: Apremilast has shown benefit of weight loss in both Phase 2 and Phase 3 Psoriatic Arthritis (PSA) and Psoriasis (PSOR) trials.
# [6] = 20 mg BID, Apremilast-exposure Period, m = 943
# [7] = 20 mg BID, End of Period (APR, apremilast exposure), Subjects as Initially Treated at Week 0
# [8] = 20 mg BID, End of Period (PBC, Week 24), Subjects as Initially Treated at Week 0
# [9] = 20 mg BID, End of Period (apremilast exposure), Apremilast Subjects as Treated
# [10] = 20 mg BID, Week 52, Apremilast Subjects as Treated
# [11] = 20 mg BID, Week 78, Apremilast Subjects as Treated
# [12] = 30 mg BID, Apremilast-exposure Period, m = 944
# [13] = 30 mg BID, End of Period (APR, apremilast exposure), Subjects as Initially Treated at Week 0
# [14] = 30 mg BID, End of Period (PBC, Week 24), Subjects as Initially Treated at Week 0
# [15] = 30 mg BID, End of Period (apremilast exposure), Apremilast Subjects as Treated
# [16] = 30 mg BID, Week 52, Apremilast Subjects as Treated
# [17] = 30 mg BID, Week 78, Apremilast Subjects as Treated
smiles,measurement,setting,value
"CCOc1cc([C@@H](CS(C)(=O)=O)N2C(=O)c3cccc(NC(C)=O)c3C2=O)ccc1OC [Apremilast, (+)-2-[1-(3-ethoxy-4-methoxyphenyl)-2-methylsulfonylethyl]-4-acetylaminoisoindoline-1,3-dione]",IC50,[1],77 nM
same,IC50,[2],73.5 nM
same,% inhibition of PDE1,[3],23%
same,% inhibition of PDE3,[4],20%
same,"weight decrease reported, subjects n (%)",[5]; 20 mg BID,10 (1.0%) n (%)
same,"weight loss of greater than 10%, subjects n (%)","[5]; 20 mg BID, Apremilast-exposure Period",42 (4.5%) n (%)
same,"Weight % Change Category 0%, n (%)",[5]; [6],74 (7.8) n (%)
same,"Weight % Change Category <−20%, n (%)",[5]; [6],1 (0.1) n (%)
same,"Weight % Change Category >0% to ≦5%, n (%)",[5]; [6],280 (29.7) n (%)
same,"Weight % Change Category >5% to ≦10%, n (%)",[5]; [6],42 (4.5) n (%)
same,"Weight % Change Category >10% to ≦20%, n (%)",[5]; [6],14 (1.5) n (%)
same,"Weight % Change Category >20%, n (%)",[5]; [6],0 n (%)
same,"Weight % Change Category ≧−5% to <0%, n (%)",[5]; [6],393 (41.7) n (%)
same,"Weight % Change Category ≧−10% to <−5%, n (%)",[5]; [6],98 (10.4) n (%)
same,"Weight % Change Category ≧−20% to <−10%, n (%)",[5]; [6],41 (4.3) n (%)
same,"Change From Baseline (kg) Median (Min, Max)",[5]; [7],"−0.60 (−44.3, 14.0) kg"
same,"Weight, kg End of Period Mean ± SD",[5]; [7],84.38 ± 20.636 kg
same,Change From Baseline (kg) Mean ± SD,"[5]; 20 mg BID, End of Period (APR, apremilast exposure), Subjects as Initially Treated at Week 0, listed as APR",-1.13 kg and -1.13 ± 4.491 kg
same,"Change From Baseline (kg) Median (Min, Max)",[5]; [8],"−0.50 (−17.2, 11.5) kg"
same,"Weight, kg End of Period Mean ± SD",[5]; [8],84.47 ± 20.734 kg
same,Change From Baseline (kg) Mean ± SD,"[5]; 20 mg BID, End of Period (PBC, Week 24), Subjects as Initially Treated at Week 0, listed as APR",-1.05 kg and -1.05 ± 3.366 kg
same,Change From Baseline (kg) Mean ± SD,[5]; [9],-1.16 ± 4.255 kg
same,"Change From Baseline (kg) Median (Min, Max)",[5]; [9],"−0.50 (−44.3, 14.0) kg"
same,"Weight, kg Time Point Mean ± SD",[5]; [9],84.65 ± 20.541 kg
same,"Change From Baseline (kg) Median (Min, Max)",[5]; [10],"−1.00 (−26.0, 12.5) kg"
same,"Weight, kg Time Point Mean ± SD",[5]; [10],84.89 ± 20.190 kg
same,Change From Baseline (kg) Mean ± SD,"[5]; 20 mg BID, Week 52, Apremilast Subjects as Treated, listed as APR",-1.25 kg and -1.25 ± 4.223 kg
same,"Change From Baseline (kg) Median (Min, Max)",[5]; [11],"−1.00 (−44.3, 14.0) kg"
same,"Weight, kg Time Point Mean ± SD",[5]; [11],86.63 ± 19.721 kg
same,Change From Baseline (kg) Mean ± SD,"[5]; 20 mg BID, Week 78, Apremilast Subjects as Treated, listed as APR",-1.70 kg and -1.70 ± 6.192 kg
same,"Weight % Change Category 0%, n (%)","[5]; 20 mg BID, Weeks 0-16, m = 868",122 (14.1) n (%)
same,"Weight % Change Category <−20%, n (%)","[5]; 20 mg BID, Weeks 0-16, m = 868",0 n (%)
same,"Weight % Change Category >0% to ≦5%, n (%)","[5]; 20 mg BID, Weeks 0-16, m = 868",260 (30.0) n (%)
same,"Weight % Change Category >5% to ≦10%, n (%)","[5]; 20 mg BID, Weeks 0-16, m = 868",13 (1.5) n (%)
same,"Weight % Change Category >10% to ≦20%, n (%)","[5]; 20 mg BID, Weeks 0-16, m = 868",1 (0.1) n (%)
same,"Weight % Change Category >20%, n (%)","[5]; 20 mg BID, Weeks 0-16, m = 868",0 n (%)
same,"Weight % Change Category ≧−5% to <0%, n (%)","[5]; 20 mg BID, Weeks 0-16, m = 868",431 (49.7) n (%)
same,"Weight % Change Category ≧−10% to <−5%, n (%)","[5]; 20 mg BID, Weeks 0-16, m = 868",35 (4.0) n (%)
same,"Weight % Change Category ≧−20% to <−10%, n (%)","[5]; 20 mg BID, Weeks 0-16, m = 868",6 (0.7) n (%)
same,"observed weight loss of greater than 10%, subjects n (%)",[5]; 20 mg BID,6 (0.7%) n (%)
same,percentage of subjects with weight change of -10% to <−5%,[5]; 20 mg BID,4.0%
same,"weight decrease reported, subjects n (%)",[5]; 30 mg BID,15 (1.5%) n (%)
same,"weight loss of greater than 10%, subjects n (%)","[5]; 30 mg BID, Apremilast-exposure Period",36 (3.8%) n (%)
same,"Weight % Change Category 0%, n (%)",[5]; [12],71 (7.5) n (%)
same,"Weight % Change Category <−20%, n (%)",[5]; [12],0 n (%)
same,"Weight % Change Category >0% to ≦5%, n (%)",[5]; [12],272 (28.8) n (%)
same,"Weight % Change Category >5% to ≦10%, n (%)",[5]; [12],46 (4.9) n (%)
same,"Weight % Change Category >10% to ≦20%, n (%)",[5]; [12],8 (0.8) n (%)
same,"Weight % Change Category >20%, n (%)",[5]; [12],4 (0.4) n (%)
same,"Weight % Change Category ≧−5% to <0%, n (%)",[5]; [12],387 (41.0) n (%)
same,"Weight % Change Category ≧−10% to <−5%, n (%)",[5]; [12],120 (12.7) n (%)
same,"Weight % Change Category ≧−20% to <−10%, n (%)",[5]; [12],36 (3.8) n (%)
same,"Change From Baseline (kg) Median (Min, Max)",[5]; [13],"−1.00 (−23.0, 17.1) kg"
same,"Weight, kg End of Period Mean ± SD",[5]; [13],83.61 ± 19.766 kg
same,Change From Baseline (kg) Mean ± SD,"[5]; 30 mg BID, End of Period (APR, apremilast exposure), Subjects as Initially Treated at Week 0, listed as APR",-1.26 kg and -1.26 ± 4.120 kg
same,"Change From Baseline (kg) Median (Min, Max)",[5]; [14],"−0.60 (−13.7, 11.4) kg"
same,"Weight, kg End of Period Mean ± SD",[5]; [14],83.90 ± 19.670 kg
same,Change From Baseline (kg) Mean ± SD,"[5]; 30 mg BID, End of Period (PBC, Week 24), Subjects as Initially Treated at Week 0, listed as APR",-0.97 kg and -0.97 ± 3.016 kg
same,Change From Baseline (kg) Mean ± SD,[5]; [15],-0.96 ± 5.534 kg
same,"Weight, kg Time Point Mean ± SD",[5]; [15],84.09 ± 20.309 kg
same,"Change From Baseline (kg) Median (Min, Max)",[5]; [16],"−1.30 (−23.0, 11.8) kg"
same,"Weight, kg Time Point Mean ± SD",[5]; [16],84.16 ± 19.253 kg
same,Change From Baseline (kg) Mean ± SD,"[5]; 30 mg BID, Week 52, Apremilast Subjects as Treated, listed as APR",-1.68 kg and -1.68 ± 4.049 kg
same,"Change From Baseline (kg) Median (Min, Max)",[5]; [17],"−2.00 (−16.0, 17.1) kg"
same,"Weight, kg Time Point Mean ± SD",[5]; [17],83.53 ± 18.202 kg
same,Change From Baseline (kg) Mean ± SD,"[5]; 30 mg BID, Week 78, Apremilast Subjects as Treated, listed as APR",-2.14 kg and -2.14 ± 4.605 kg
same,"Weight % Change Category 0%, n (%)","[5]; 30 mg BID, Weeks 0-16, m = 857",111 (13.0) n (%)
same,"Weight % Change Category <−20%, n (%)","[5]; 30 mg BID, Weeks 0-16, m = 857",0 n (%)
same,"Weight % Change Category >0% to ≦5%, n (%)","[5]; 30 mg BID, Weeks 0-16, m = 857",266 (31.0) n (%)
same,"Weight % Change Category >5% to ≦10%, n (%)","[5]; 30 mg BID, Weeks 0-16, m = 857",10 (1.2) n (%)
same,"Weight % Change Category >10% to ≦20%, n (%)","[5]; 30 mg BID, Weeks 0-16, m = 857",1 (0.1) n (%)
same,"Weight % Change Category >20%, n (%)","[5]; 30 mg BID, Weeks 0-16, m = 857",3 (0.4) n (%)
same,"Weight % Change Category ≧−5% to <0%, n (%)","[5]; 30 mg BID, Weeks 0-16, m = 857",424 (49.5) n (%)
same,"Weight % Change Category ≧−10% to <−5%, n (%)","[5]; 30 mg BID, Weeks 0-16, m = 857",35 (4.1) n (%)
same,"Weight % Change Category ≧−20% to <−10%, n (%)","[5]; 30 mg BID, Weeks 0-16, m = 857",7 (0.8) n (%)
same,"observed weight loss of greater than 10%, subjects n (%)",[5]; 30 mg BID,7 (0.8%) n (%)
same,percentage of subjects with weight change of -10% to <−5%,[5]; 30 mg BID,4.1%
same,"weight decrease reported, subjects n (%)",[5]; all subjects who received apremilast,25 (1.3%) n (%)
same,body weight of the majority of subjects,[5]; regardless of duration of exposure,maintained their body weight within 0% and 5% of baseline
